{"source": "patent US11634404B2", "about": "(priority 2016, dated 2023)", "type_in_all_cases": "cell-based", "key": {"D2 DAR [1]": {"molecular_target": "T1, D2 DAR (Homo sapiens (Human), UniProt P14416)", "T1 sequence (P14416 whole entry)": "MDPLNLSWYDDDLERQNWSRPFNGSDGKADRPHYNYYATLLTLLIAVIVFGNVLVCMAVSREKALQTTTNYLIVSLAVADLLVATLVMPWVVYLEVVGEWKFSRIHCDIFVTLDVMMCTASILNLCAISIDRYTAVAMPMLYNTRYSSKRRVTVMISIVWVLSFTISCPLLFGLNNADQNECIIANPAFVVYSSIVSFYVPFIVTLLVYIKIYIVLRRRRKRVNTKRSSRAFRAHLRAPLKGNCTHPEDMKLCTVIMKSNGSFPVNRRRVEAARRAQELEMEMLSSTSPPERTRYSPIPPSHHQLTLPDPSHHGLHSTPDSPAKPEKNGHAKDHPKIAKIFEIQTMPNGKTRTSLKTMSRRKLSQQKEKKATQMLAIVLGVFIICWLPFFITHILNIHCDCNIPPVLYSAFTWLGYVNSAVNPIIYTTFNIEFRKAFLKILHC", "settings": "β-arrestin recruitment, agonist; for D2 Emax: 'curve' = wrapped cell 'curve interrupted'"}, "D2 DAR [2]": {"molecular_target": "T1, D2 DAR", "settings": "β-arrestin recruitment, antagonist"}, "D3 DAR": {"molecular_target": "D3 DAR (Homo sapiens (Human), UniProt P35462)", "sequence (P35462 whole entry)": "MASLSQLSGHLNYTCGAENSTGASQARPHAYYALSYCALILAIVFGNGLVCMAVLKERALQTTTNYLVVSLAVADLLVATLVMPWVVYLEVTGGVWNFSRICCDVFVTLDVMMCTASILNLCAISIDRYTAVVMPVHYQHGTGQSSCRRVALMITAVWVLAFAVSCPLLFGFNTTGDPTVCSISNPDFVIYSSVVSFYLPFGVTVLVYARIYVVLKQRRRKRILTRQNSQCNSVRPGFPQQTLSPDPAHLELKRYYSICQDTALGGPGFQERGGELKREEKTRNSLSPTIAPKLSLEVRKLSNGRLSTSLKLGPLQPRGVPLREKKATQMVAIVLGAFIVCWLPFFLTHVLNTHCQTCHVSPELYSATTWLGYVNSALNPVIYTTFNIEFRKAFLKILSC", "settings": "β-arrestin recruitment, agonist; for D3 Emax: 'curve' = wrapped cell 'curve interrupted'"}}}
{"smiles": "CCc1ccc(OCCN2CCN(C(=O)c3cc4ccccc4[nH]3)CC2)cc1", "note": "[Compound 98]", "values": [{"measurement": "D2 EC50", "setting": "D2 DAR [1]", "result": "none"}, {"measurement": "D2 Emax", "setting": "D2 DAR [1]", "result": "none"}, {"measurement": "IC50", "setting": "D2 DAR [2]", "result": "> 50000", "unit": "nM"}]}
{"smiles": "COc1ccc(OCCN2CCN(C(=O)c3cc4c(C)cccc4[nH]3)CC2)cc1", "note": "[Compound 30]", "values": [{"measurement": "EC50", "setting": "D3 DAR", "result": 266, "unit": "nM"}]}
{"smiles": "COc1ccc(OCCN2CCN(C(=O)c3cc4ccccc4o3)CC2)cc1", "note": "[Compound 62]", "values": [{"measurement": "D2 EC50", "setting": "D2 DAR [1]", "result": "none"}, {"measurement": "D2 Emax", "setting": "D2 DAR [1]", "result": "none"}, {"measurement": "IC50", "setting": "D2 DAR [2]", "result": 7700, "unit": "nM"}, {"measurement": "D2 Imax", "setting": "D2 DAR [2]; 'curve' = wrapped cell 'curve interrupted'", "result": 100}]}
{"smiles": "O=C(c1nc2ccccc2[nH]1)N1CCN(CCOc2cccnc2)CC1", "note": "[Compound 5]", "values": [{"measurement": "EC50", "setting": "D2 DAR [1]", "result": 2400, "unit": "nM"}, {"measurement": "D2 IC50", "setting": "D2 DAR [2]", "result": "None"}]}
{"smiles": "COc1ccc(OCCCN2CCN(C(=O)c3cc4ccccc4[nH]3)CC2)cc1", "note": "[Compound 122]", "values": [{"measurement": "D3 EC50", "setting": "D3 DAR", "result": "none"}, {"measurement": "D3 Emax", "setting": "D3 DAR", "result": "none"}]}
{"smiles": "COc1cccc(OCCN2CCN(C(=O)c3cc4ccccc4[nH]3)CC2)c1", "note": "[Compound 92]", "values": [{"measurement": "D3 EC50", "setting": "D3 DAR", "result": "none"}, {"measurement": "D3 Emax", "setting": "D3 DAR", "result": "none"}]}
{"smiles": "COc1ccc(OC(C)CN2CCN(C(=O)c3cc4ccccc4[nH]3)CC2)cc1", "note": "(centres unmarked) [Compound 120]", "values": [{"measurement": "EC50", "setting": "D3 DAR", "result": 82, "unit": "nM"}]}
{"smiles": "O=C(c1cc2ccccc2[nH]1)N1CCN(CCOc2ccc3[nH]ccc3c2)CC1", "note": "[Compound 16]", "values": [{"measurement": "EC50", "setting": "D3 DAR", "result": 60.9, "unit": "nM"}]}
{"smiles": "COc1ccc(OCCN(C)CCN(C)C(=O)c2ccc(OC)cc2)cc1", "note": "[Compound 118]", "values": [{"measurement": "D3 EC50", "setting": "D3 DAR", "result": "none"}, {"measurement": "D3 Emax", "setting": "D3 DAR", "result": "none"}]}
{"smiles": "COc1ccc(C(=O)N2CCN(CCOc3ccccc3OC)CC2)cc1", "note": "[Compound 34]", "values": [{"measurement": "EC50", "setting": "D3 DAR", "result": 278, "unit": "nM"}]}
{"smiles": "COc1ccc(CCCN2CCN(C(=O)c3ccc(OC)cc3)CC2)cc1", "note": "[Compound 113]", "values": [{"measurement": "D3 EC50", "setting": "D3 DAR", "result": "none"}, {"measurement": "D3 Emax", "setting": "D3 DAR", "result": "none"}]}
{"smiles": "O=C(c1cc2cccnc2[nH]1)N1CCN(CCOc2cccnc2)CC1", "note": "[Compound 4, (4-(2-(pyridin-3-yloxy)ethyl)piperazin-1-yl)(1H-pyrrolo[2,3-b]pyridin-2-yl)methanone]", "values": [{"measurement": "EC50", "setting": "D3 DAR", "result": 13.5, "unit": "nM"}]}
{"smiles": "COc1ccc(OCCN2CCN(C(=O)c3ccc4[nH]ccc4c3)CC2)cc1", "note": "[Compound 31]", "values": [{"measurement": "EC50", "setting": "D2 DAR [1]", "result": 2500, "unit": "nM"}]}
{"smiles": "COc1cccc(OCCN2CCN(C(=O)c3cc4ccccc4[nH]3)CC2)c1", "note": "[Compound 14]", "values": [{"measurement": "EC50", "setting": "D3 DAR", "result": 33.8, "unit": "nM"}]}
{"smiles": "COc1ccc(OCCCN2CCN(C(=O)c3ccc(OC)cc3)CC2)cc1", "note": "[Compound 112]", "values": [{"measurement": "D3 EC50", "setting": "D3 DAR", "result": "none"}, {"measurement": "D3 Emax", "setting": "D3 DAR", "result": "none"}]}
{"smiles": "O=C(c1cc2ccncc2[nH]1)N1CCN(CCOc2cccnc2)CC1", "note": "[Compound 8]", "values": [{"measurement": "EC50", "setting": "D3 DAR", "result": 81, "unit": "nM"}]}
{"smiles": "O=C(c1cc2ccccc2[nH]1)N1CCN(CCOc2cccnc2)CC1", "note": "[Compound 106]", "values": [{"measurement": "D2 IC50", "setting": "D2 DAR [2]", "result": "none"}]}
{"smiles": "CC(CN1CCN(C(=O)c2cc3ccccc3[nH]2)CC1)Oc1ccc(Cl)cc1", "note": "(centres unmarked) [Compound 121]", "values": [{"measurement": "EC50", "setting": "D3 DAR", "result": 32, "unit": "nM"}]}
{"smiles": "O=C(c1cc2ccccc2s1)N1CCN(CCOc2cccnc2)CC1", "note": "[Compound 6]", "values": [{"measurement": "EC50", "setting": "D3 DAR", "result": 13.3, "unit": "nM"}]}
{"smiles": "Cc1cccc2cc(C(=O)N3CCN(CCOc4cccnc4)CC3)[nH]c12", "note": "[Compound 73]", "values": [{"measurement": "EC50", "setting": "D3 DAR", "result": 25.7, "unit": "nM"}]}
{"smiles": "COc1ccc2cc(C(=O)N3CCN(CCOc4cccnc4)CC3)[nH]c2c1", "note": "[Compound 71]", "values": [{"measurement": "EC50", "setting": "D3 DAR", "result": 6.4, "unit": "nM"}]}
{"smiles": "COc1cccc(OCCN2CCN(C(=O)c3nc4ccccc4[nH]3)CC2)c1", "note": "[Compound 9]", "values": [{"measurement": "EC50", "setting": "D3 DAR", "result": 285, "unit": "nM"}]}
{"smiles": "COc1ccc(OCCCCN2CCN(C(=O)c3cc4ccccc4[nH]3)CC2)cc1", "note": "[Compound 123]", "values": [{"measurement": "D3 EC50", "setting": "D3 DAR", "result": "none"}, {"measurement": "D3 Emax", "setting": "D3 DAR", "result": "none"}]}
{"smiles": "O=C(c1cc2cccnc2[nH]1)N1CCN(CCOc2cccnc2)CC1", "note": "[Compound 83]", "values": [{"measurement": "EC50", "setting": "D3 DAR", "result": 13.5, "unit": "nM"}]}
{"smiles": "COc1cccc(OCCN2CCN(C(=O)c3cc4ccccc4[nH]3)CC2)c1", "note": "[Compound 94]", "values": [{"measurement": "EC50", "setting": "D3 DAR", "result": 33.8, "unit": "nM"}]}
{"smiles": "COc1ccc2cc(C(=O)N3CCN(CCOc4cccnc4)CC3)[nH]c2c1", "note": "[Compound 23]", "values": [{"measurement": "EC50", "setting": "D3 DAR", "result": 6.4, "unit": "nM"}]}
{"smiles": "Cc1cccc2cc(C(=O)N3CCN(CCOc4cccnc4)CC3)[nH]c12", "note": "[Compound 26]", "values": [{"measurement": "EC50", "setting": "D3 DAR", "result": 25.7, "unit": "nM"}]}
{"smiles": "COc1ccc(OCCN2CCN(C(=O)c3cc4ccccc4s3)CC2)cc1", "note": "[Compound 61]", "values": [{"measurement": "EC50", "setting": "D3 DAR", "result": 3300, "unit": "nM"}]}
{"smiles": "COc1ccc(OCCN2CCN(C(=O)c3cc4cccnc4[nH]3)CC2)cc1", "note": "[Compound 56]", "values": [{"measurement": "EC50", "setting": "D3 DAR", "result": 167, "unit": "nM"}]}
{"smiles": "COc1ccc(OCCN2CCN(C(=O)c3cc4ccc(Cl)cc4[nH]3)CC2)cc1", "note": "[Compound 52]", "values": [{"measurement": "EC50", "setting": "D3 DAR", "result": 225, "unit": "nM"}]}
{"smiles": "COc1ccc(OCCCN2CCN(C(=O)c3ccc(Cl)cc3)CC2)cc1", "note": "[Compound 115]", "values": [{"measurement": "D3 EC50", "setting": "D3 DAR", "result": "none"}, {"measurement": "D3 Emax", "setting": "D3 DAR", "result": "none"}]}
